We go through 1 compound from patent US4451463A, “Alcohol derivatives” (Imperial Chemical Industries PLC, priority 1981, dated 1984).

SMILES strings stand for the structures.

The nature of the data set: LD50 in mice, dosed intravenously. As to conditions: mouse, in vivo, iv.

As for `NC(=NCC(F)(F)F)Nc1ccnc(OCCCO)n1` [Example 1, 4-[2-(2,2,2-trifluoroethyl)guanidino]-2-(3-hydroxypropoxy)pyrimidine], the LD50 is approximately 30 mg/kg.

By LD50 is commonly meant the dose expected to kill half of the subjects tested. A low value points to greater toxicity.
